Data set [1] addresses T1, Alpha-2A adrenergic receptor (Homo sapiens, UniProt P08913).
T1 sequence (P08913 whole entry): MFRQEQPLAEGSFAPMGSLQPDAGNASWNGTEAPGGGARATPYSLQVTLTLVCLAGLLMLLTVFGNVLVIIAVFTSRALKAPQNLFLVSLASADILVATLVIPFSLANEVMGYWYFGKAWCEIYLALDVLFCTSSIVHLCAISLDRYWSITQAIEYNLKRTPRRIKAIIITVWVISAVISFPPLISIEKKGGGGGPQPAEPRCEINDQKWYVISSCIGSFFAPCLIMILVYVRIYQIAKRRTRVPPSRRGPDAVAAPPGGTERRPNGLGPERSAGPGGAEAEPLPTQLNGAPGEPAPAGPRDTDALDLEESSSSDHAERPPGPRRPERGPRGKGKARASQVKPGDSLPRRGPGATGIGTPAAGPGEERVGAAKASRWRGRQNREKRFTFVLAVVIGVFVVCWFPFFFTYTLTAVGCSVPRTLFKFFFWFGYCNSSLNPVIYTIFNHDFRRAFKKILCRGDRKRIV
The format is cell membranes, Sf9, Membrane. The conditions noted are these: sf9.

Data set [2] deals with Vascular endothelial growth factor receptor 1 (Homo sapiens, UniProt P17948). The class given is cell-based. Conditions: huvec.
The target of data set [3] is Cannabinoid receptor 1 (Homo sapiens, UniProt P21554). The class given is cell membranes, Chem-1, Membrane. The conditions noted are these: chem-1. Note: in other assays of this panel Not Active means under 50% inhibition at 10 µM.
Data set [4] concerns the target Mitogen-activated protein kinase 1 (Homo sapiens, UniProt P28482). The experiment in a line: DRUGMATRIX: Protein Serine/Threonine Kinase, ERK2 enzyme inhibition (substrate: Myelin Basic Protein). On the set-up: species or system Escherichia coli. Conditions: Not Active = under 50% inhibition at 10 µM.
Data set [5] deals with T2, Adenosine receptor A3 (Homo sapiens, UniProt P0DMS8).
T2 sequence (P0DMS8 whole entry): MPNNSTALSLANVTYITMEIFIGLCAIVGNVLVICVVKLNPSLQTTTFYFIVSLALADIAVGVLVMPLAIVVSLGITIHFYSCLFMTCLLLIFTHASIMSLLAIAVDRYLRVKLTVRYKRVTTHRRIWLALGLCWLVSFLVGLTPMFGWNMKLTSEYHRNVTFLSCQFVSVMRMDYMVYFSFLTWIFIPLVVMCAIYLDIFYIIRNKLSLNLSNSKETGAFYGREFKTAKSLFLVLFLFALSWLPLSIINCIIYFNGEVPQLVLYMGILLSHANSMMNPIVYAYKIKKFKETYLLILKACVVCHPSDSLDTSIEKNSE
The format is cell membranes, CHO-K1, Membrane. The conditions noted are these: cho-k1.

The target in data set [6] is Voltage-gated inwardly rectifying potassium channel KCNH2 (Homo sapiens, UniProt Q12809). The conditions noted are these: hek293. Note: in other assays of this panel Not Active means under 50% inhibition at 10 µM.
Chain of Voltage-gated inwardly rectifying potassium channel KCNH2 (Q12809 whole entry): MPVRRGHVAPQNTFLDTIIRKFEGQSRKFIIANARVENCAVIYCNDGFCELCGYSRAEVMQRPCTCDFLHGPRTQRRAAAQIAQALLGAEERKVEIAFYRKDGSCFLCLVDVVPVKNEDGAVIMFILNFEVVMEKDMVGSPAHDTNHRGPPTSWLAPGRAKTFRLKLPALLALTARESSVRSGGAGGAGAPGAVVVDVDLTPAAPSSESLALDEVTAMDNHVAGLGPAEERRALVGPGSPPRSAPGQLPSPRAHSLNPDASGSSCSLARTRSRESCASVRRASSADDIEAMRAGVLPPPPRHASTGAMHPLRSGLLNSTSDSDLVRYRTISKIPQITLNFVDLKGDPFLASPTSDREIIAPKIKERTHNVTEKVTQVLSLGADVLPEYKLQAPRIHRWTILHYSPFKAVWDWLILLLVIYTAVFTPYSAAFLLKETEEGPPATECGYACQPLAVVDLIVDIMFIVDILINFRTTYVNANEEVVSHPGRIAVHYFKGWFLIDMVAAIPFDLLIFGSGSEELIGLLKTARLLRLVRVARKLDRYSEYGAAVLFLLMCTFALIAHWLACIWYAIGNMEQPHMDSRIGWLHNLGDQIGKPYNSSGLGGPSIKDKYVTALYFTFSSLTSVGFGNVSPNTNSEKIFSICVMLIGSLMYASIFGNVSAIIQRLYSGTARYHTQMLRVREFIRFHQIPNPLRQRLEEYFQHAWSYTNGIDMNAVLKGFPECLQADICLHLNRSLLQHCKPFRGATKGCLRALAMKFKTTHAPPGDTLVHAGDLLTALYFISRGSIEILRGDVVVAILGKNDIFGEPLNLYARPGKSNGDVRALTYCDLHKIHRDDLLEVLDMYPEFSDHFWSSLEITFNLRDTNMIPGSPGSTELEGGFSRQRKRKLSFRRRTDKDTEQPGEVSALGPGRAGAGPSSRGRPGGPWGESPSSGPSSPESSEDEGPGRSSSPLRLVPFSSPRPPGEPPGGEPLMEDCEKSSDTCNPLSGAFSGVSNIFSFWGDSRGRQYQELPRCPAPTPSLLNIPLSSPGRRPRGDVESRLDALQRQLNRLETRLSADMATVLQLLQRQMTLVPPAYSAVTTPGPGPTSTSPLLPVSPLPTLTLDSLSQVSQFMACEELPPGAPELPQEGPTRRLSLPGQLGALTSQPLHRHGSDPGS

Chain of Cannabinoid receptor 1 (P21554 whole entry): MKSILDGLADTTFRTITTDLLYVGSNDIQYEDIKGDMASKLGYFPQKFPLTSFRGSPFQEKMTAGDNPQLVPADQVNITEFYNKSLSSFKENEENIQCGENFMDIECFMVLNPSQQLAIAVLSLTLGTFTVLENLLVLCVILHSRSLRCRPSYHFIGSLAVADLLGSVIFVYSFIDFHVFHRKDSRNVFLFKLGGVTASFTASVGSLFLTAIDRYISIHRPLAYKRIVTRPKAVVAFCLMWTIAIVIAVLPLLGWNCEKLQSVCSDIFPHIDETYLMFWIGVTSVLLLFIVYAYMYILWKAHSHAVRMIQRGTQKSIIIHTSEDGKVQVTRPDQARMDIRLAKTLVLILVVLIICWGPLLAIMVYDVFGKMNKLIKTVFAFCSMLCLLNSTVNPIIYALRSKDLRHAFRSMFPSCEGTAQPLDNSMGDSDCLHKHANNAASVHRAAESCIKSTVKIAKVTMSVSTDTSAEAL
Chain of Vascular endothelial growth factor receptor 1 (P17948 whole entry): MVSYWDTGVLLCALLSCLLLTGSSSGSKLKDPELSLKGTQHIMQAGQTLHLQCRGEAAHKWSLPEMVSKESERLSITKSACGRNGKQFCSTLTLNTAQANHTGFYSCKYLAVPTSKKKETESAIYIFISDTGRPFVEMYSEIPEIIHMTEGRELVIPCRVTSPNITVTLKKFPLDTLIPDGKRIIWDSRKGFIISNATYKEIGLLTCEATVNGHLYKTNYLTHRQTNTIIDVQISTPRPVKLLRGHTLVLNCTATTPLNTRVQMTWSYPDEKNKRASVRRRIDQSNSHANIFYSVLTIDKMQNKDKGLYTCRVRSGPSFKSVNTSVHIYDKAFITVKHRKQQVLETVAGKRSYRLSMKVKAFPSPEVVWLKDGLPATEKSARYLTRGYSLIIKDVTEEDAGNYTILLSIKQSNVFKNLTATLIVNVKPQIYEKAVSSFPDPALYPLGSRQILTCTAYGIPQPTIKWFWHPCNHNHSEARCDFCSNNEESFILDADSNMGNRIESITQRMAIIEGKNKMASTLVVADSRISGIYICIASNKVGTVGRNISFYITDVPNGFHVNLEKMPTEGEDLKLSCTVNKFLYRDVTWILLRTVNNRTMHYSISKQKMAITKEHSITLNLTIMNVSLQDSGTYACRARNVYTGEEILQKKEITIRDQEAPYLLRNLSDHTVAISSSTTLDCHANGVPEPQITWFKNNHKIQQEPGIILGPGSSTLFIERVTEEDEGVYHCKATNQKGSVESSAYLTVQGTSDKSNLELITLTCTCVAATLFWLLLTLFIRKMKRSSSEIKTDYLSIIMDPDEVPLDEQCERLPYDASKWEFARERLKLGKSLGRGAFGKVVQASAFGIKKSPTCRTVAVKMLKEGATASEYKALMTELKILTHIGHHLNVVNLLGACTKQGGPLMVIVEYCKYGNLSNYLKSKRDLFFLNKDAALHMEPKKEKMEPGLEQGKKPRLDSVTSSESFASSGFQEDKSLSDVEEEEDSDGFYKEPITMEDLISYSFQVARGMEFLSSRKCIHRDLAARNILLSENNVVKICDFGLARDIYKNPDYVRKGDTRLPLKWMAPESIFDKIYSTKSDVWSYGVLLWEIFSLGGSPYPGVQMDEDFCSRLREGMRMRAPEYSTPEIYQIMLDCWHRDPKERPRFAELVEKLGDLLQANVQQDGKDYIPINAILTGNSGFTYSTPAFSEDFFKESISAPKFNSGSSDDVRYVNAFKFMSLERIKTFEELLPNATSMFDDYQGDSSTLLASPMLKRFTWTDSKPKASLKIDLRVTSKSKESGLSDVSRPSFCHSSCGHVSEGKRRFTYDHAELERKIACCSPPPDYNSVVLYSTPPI
Chain of Mitogen-activated protein kinase 1 (P28482 whole entry): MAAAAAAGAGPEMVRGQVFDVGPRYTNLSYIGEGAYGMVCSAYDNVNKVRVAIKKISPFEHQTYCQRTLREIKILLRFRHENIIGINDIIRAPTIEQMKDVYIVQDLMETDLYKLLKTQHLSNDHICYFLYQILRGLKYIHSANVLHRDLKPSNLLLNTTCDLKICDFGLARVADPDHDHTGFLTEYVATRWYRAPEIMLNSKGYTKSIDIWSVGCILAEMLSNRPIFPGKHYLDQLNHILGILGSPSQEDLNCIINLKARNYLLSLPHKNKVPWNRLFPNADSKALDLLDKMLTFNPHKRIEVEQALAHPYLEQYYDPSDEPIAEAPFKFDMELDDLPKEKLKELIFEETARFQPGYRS

In the case of `CC(=O)OCC(COC(C)=O)OC(C)=O` [TRIACETIN], the IC50 result in data set [1], in data set [2], in data set [3], in data set [4], in data set [5] and in data set [6] was “Not Active” in each case. Besides, the Ki result in data set [6] was “Not Active”.

Regarding TRANSPLATIN, the IC50 result in data set [1] is “Not Active”; in data set [2], “Not Active”; in data set [3], “Not Active”; in data set [4], “Not Active”; in data set [5] (read-out: IC50), 0.989 µM; in data set [6], “Not Active”. Moreover, the inhibition constant Ki entry in data set [1] is “Not Active”; in data set [2], “Not Active”; in data set [3] it was “Not Active”; in data set [4], “Not Active”; in data set [5] (read-out: Ki), 0.559 µM; in data set [6], “Not Active”.

In the case of ZIRCONIUM(IV) CHLORIDE, the 50% inhibitory concentration (IC50) result in data set [1], in data set [2], in data set [3], in data set [4], in data set [5] and in data set [6] was “Not Active” in each case. The inhibitory constant (Ki) result in data set [1], in data set [2], in data set [3], in data set [4], in data set [5] and in data set [6] was “Not Active” in each case.

As a reminder, the IC50 is the point on the concentration scale where inhibition reaches its midpoint. For orientation: Ki means the dissociation constant of the complex between target and ligand, obtained from inhibition or displacement.
